PMC5626781, “A Potent Tartrate Resistant Acid Phosphatase Inhibitor to Study the Function of TRAP in Alveolar Macrophages” (Scientific Reports, 2017)

How the values were obtained:
recombinant human TRAP5b = recombinant human TRAP5b (Homo sapiens, UniProt P13686); experiment: TRAP activity assay (PNPP) with recombinant TRAP5b; assay type: biochemical; conditions: pH 5.8, 30 min 37 °C, mean ± standard error, n = 3
Method: Recombinant unspecified human TRAP was purchased from R&D (Minneapolis, USA). Recombinant human TRAP5a and 5b were produced and purified according to a protocol based on several sources[70]–[72] using an ÄKTApurifier™ 10 FPLC system (GE Healthcare, Danderyd, Sweden) as previously described.
Inhibitor dilutions were prepared in acetate buffer from freshly prepared stock solutions (10 mM in DMSO). Recombinant unspecified TRAP (1.25 ng/ml, pH 4.5), TRAP5a (150 ng/mL, pH 5) or TRAP5b (150 ng/mL, pH 5.8) were incubated at 37 °C for 30 minutes with PNPP solution [10 mM PNPP, 200 mM sodium acetaat, 300 mM potassium chloride) at the indicated pH at a 1:1 ratio and increasing concentrations of NaAuCl4 (range 0–40 μM) or Au compounds (range 0–5.1 μM). To stop the reaction, 1M NaOH was added and absorption at 410 nm, with 490 nm as a reference value, was measured using a spectrophotometer.
(§1) The inhibitory effects of gold compounds were calculated as the ratio of absorbance between the treated and untreated wells. The IC50 values were calculated using nonlinear curve fitting with a variable slope in Graphpad Prism 6 (Graphpad Software, la Jolla, USA). An average IC50 of three independent experiments was calculated.

[1] = molecular target: T1, TRAP activity in lysates of murine MPI alveolar macrophages (Mus musculus, UniProt Q05117); experiment: TRAP activity assay on MPI alveolar macrophage lysates; assay type: biochemical; conditions: cell lysates of murine MPI alveolar macrophages; mean ± standard error, n = 3
T1 construct: endogenous in cells; host or cells: murine MPI alveolar-like macrophages
T1 sequence (Q05117 23-327): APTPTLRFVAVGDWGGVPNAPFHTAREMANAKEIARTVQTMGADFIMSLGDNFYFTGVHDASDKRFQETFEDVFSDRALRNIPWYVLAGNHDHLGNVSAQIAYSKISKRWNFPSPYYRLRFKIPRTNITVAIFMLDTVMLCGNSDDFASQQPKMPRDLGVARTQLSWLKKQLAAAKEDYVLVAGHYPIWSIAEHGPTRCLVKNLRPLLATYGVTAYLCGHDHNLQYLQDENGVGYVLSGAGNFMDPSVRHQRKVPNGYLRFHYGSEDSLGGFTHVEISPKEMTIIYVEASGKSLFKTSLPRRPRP
Method: Mouse alveolar macrophage lysates were obtained by resuspending 500.000 MPI macrophages in 300 μl acetate buffer. Human lung lysates from COPD patients were used to test the inhibitor on human TRAP present in lung tissue. Lysates from in total 18 COPD patients were pooled (see Supplementary Table S3 for patient characteristics).
AubipyOMe was tested in the range 0–40 μM with MPI cell lysates or pooled lung tissue lysates from COPD patients using a TRAP activity assay. Lysates were incubated at 37 °C for 30 min in the presence of PNPP solution (1:1 ratio). 1M NaOH was added to stop the reaction and absorption was measured at 410 nm with 490 nm as a reference value.
as §1
Identification of TRAP inhibitors […]
Inhibitor dilutions were prepared in acetate buffer from freshly prepared stock solutions (10 mM in DMSO). […] To stop the reaction, 1M NaOH was added and absorption at 410 nm, with 490 nm as a reference value, was measured using a spectrophotometer. […]
The inhibitory effects of gold compounds were calculated as the ratio of absorbance between the treated and untreated wells. […]

recombinant human TRAP5b, sequence (P13686 22-161 limits assumed): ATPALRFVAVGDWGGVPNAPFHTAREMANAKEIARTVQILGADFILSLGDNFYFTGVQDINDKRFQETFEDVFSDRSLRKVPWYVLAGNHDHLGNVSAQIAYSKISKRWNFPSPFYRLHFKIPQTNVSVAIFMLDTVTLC
recombinant human TRAP5b, sequence (P13686 182-325 limits assumed): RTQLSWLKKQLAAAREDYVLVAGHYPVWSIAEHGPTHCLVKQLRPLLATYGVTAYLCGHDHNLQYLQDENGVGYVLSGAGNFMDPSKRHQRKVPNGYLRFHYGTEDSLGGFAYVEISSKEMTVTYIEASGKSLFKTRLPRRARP

## COc1ccnc(-c2cc(OC)ccn2)c1.F[P-](F)(F)(F)(F)F.[Cl][Au+][Cl] [AubipyOMe, [Au(4,4′-dimethoxy-2,2′-bipyridine)Cl2][PF6]]
Recombinant human TRAP5b
  IC50: 1800 ± 300 nM
[1]
  IC50: 1700 ± 400 nM
